Values of other authors in patent publication US20230000758A1, “METHOD FOR PREVENTING SKIN AGING COMPRISING KOREAN MINT EXTRACT” (COSMAX NBT, INC., priority 2021, published 2023).

Test system: catalase
Details: lipopolysaccharide-stimulated mouse lung tissues

For `COc1ccc(-c2cc(=O)c3c(O)cc(O[C@@H]4O[C@H](CO[C@@H]5O[C@@H](C)[C@H](O)[C@@H](O)[C@H]5O)[C@@H](O)[C@H](O)[C@H]4O)cc3o2)cc1` [linarin], the “expression of the anti-oxidant enzyme catalase” value is given as “markedly increased”.
